Assay results: patent US12714105B2, “Herbicidal mixtures and compositions and methods of use” (priority 2020, dated 2026)

Columns and labels:
Assay type in all cases: in vivo
[1] = system: Large Crabgrass; assay: Pre-emergent control of Large Crabgrass in Kentucky bluegrass turf (field trial)
Method: A trial of formulations of the present invention (dithiopyr, isoxaben, MCPP, 2,4-D, and dicamba) was carried out and is shown in Table 2, below. The trial was initiated on Mar. 12, 2019 on Kentucky bluegrass. The turf was maintained at a height of 2½ inches, watered (twice weekly to ½ inch) and fertilized at local recommendations (0.5 lbs. once June 15th). Pre-emergent control of Large Crabgrass was evaluated as a percentage of the area in the test plots (1 xl meter and 3 replicates).

[2] = system: Large Crabgrass; assay: Pre-emergent control of Large Crabgrass in Tall Fescue turf (field trial)
Method: A trial of formulations of the present invention (dithiopyr, isoxaben, MCPP, 2,4-D, and dicamba; e.g., dithiopyr and SLWC) was carried out and is shown in Table 3, below. The trial was initiated on Mar. 12, 2019 on Tall Fescue. The turf was maintained at the height of 2½ inches and watered (twice weekly to ½ inch). Pre-emergent control of Large Crabgrass was evaluated as a percentage of the area in the test plots (1 xl meter and 3 replicates).

[3] = system: Broadleaf weeds (dandelions, Oxalis, plantain and white clover); assay: Pre-emergent control of Broadleaf weeds in Tall Fescue (field trial); conditions: for Percent Amount of Broadleaf weeds present in Test plots: Percent of SLWC AI's 0, Isoxaben Rate 1144 g ai/ha
Method: A trial of the formulation of the present invention (dithiopyr, isoxaben, MCPP, 2,4-D, and dicamba, e.g., dithiopyr and SLWC) was carried out and is shown in Table 4, below. The trial was initiated on Mar. 12, 2019 on Tall Fescue. The turf was maintained at the height of 2½ inches and watered (twice weekly to ½ inch). Pre-emergent control of Broadleaf weeds (dandelions, Oxalis, plantain and white clover) was evaluated as a percentage of the area in the test plots (1×1 meter and 3 replicates).

[4] = system: Broadleaf weeds (dandelions, Oxalis, and white clover); assay: Pre-emergent control of Broadleaf weeds in Kentucky bluegrass (field trial); conditions: for Percent Amount of Broadleaf weeds present in Test plots: Percent of SLWC AI's 0, Isoxaben Rate 1130 g ai/ha
Method: A trial of formulations of the present invention (dithiopyr, isoxaben, MCPP, 2,4-D, and dicamba, e.g., dithiopyr and SLWC) was carried out and is shown in Table 5, below. The trial was initiated on Mar. 12, 2019 on Kentucky bluegrass. The turf was maintained at a height if 2½ inches and watered (twice weekly to ½ inch). Pre-emergent control of Broadleaf weeds (dandelions, Oxalis, and white clover) was evaluated as a percentage of the area in the test plots (1×1 meter and 3 replicates).

[5] = system: broadleaf weeds (Oxalis, Parsley-Preriot and white clover); assay: Pre-emergent control of broadleaf weeds in Bermuda grass (field trial); conditions: for Percent Amount of Broadleaf weeds present in Test plots: Percent of SLWC AI's 0, Isoxaben Rate 1144 g ai/ha
Method: A trial of formulations of the present invention (dithiopyr, isoxaben, MCPP, 2,4-D, and dicamba, e.g., dithiopyr and SLWC) was carried out and is shown in Table 6, below. The trial was initiated on Mar. 12, 2019 on Bermuda grass. The turf was maintained at a height of 1½ inches and watered (weekly to ½ inch). Pre-emergent control of broadleaf weeds (Oxalis, Parsley-Preriot and white clover) were evaluated as a percentage of the area in the test plots (1×1 meter and 3 replicates).

[6] = 69 DA-A, dithiopyr only, Dithiopyr Rate 280 g ai/ha
[7] = 83 DA-A, dithiopyr only, Dithiopyr Rate 280 g ai/ha
[8] = 111 DA-A, dithiopyr only, Dithiopyr Rate 280 g ai/ha
[9] = 125 DA-A, dithiopyr only, Dithiopyr Rate 280 g ai/ha
[10] = 139 DA-A, dithiopyr only, Dithiopyr Rate 280 g ai/ha
[11] = 161 DA-A, dithiopyr only, Dithiopyr Rate 280 g ai/ha
[12] = 191 DA-A, dithiopyr only, Dithiopyr Rate 280 g ai/ha

CSC(=O)c1c(C(F)F)nc(C(F)(F)F)c(C(=O)SC)c1CC(C)C [Dithiopyr (Dimension), Dimethyl 2-(difluoromethyl)-4-(2-methylpropyl)-6-(trifluoromethyl)pyridine-3,5-dicarbothioate]
Large Crabgrass, percentage of the area in the test plots [1, 6]: 0%
Large Crabgrass, percentage of the area in the test plots [1, 7]: 0%
Large Crabgrass, percentage of the area in the test plots [1, 8]: 5.7%
Large Crabgrass, percentage of the area in the test plots [1, 9]: 5%
Large Crabgrass, percentage of the area in the test plots [1, 10]: 16%
Large Crabgrass, percentage of the area in the test plots [1, 11]: 26.7%
Large Crabgrass, percentage of the area in the test plots [1, 12]: 40%
effect of the addition of Dithiopyr to SLWC on the pre-emergent control of Large Crabgrass ([1]; in words): did not affect
Large Crabgrass, percentage of the area in the test plots [2, 6]: 0%
Large Crabgrass, percentage of the area in the test plots [2, 7]: 0%
Large Crabgrass, percentage of the area in the test plots [2, 8]: 0.7%
Large Crabgrass, percentage of the area in the test plots [2, 9]: 5%
Large Crabgrass, percentage of the area in the test plots [2, 10]: 7.3%
Large Crabgrass, percentage of the area in the test plots [2, 11]: 43.3%
Large Crabgrass, percentage of the area in the test plots [2, 12]: 50%
effect of the addition of Dithiopyr to SLWC on the pre-emergent control of Large Crabgrass ([2]; in words): did not affect
effect of the addition of Dithiopyr to SLWC on the pre-emergent control of broadleaf weeds provided by Isoxaben ([3]; in words): did not affect
effect of the addition of Dithiopyr to SLWC on the pre-emergent control of broadleaf weeds provided by Isoxaben ([4]; in words): did not affect
effect of the addition of Dithiopyr to SLWC on the pre-emergent control of broadleaf weeds provided by Isoxaben ([5]; in words): did not affect

CCC(C)(CC)c1cc(NC(=O)c2c(OC)cccc2OC)on1 [Isoxaben (Gallery 75 DF), Isoxaben]
Large Crabgrass, percentage of the area in the test plots ([1]; 69 DA-A, isoxaben only, LR (labelled rate)): 0%
Large Crabgrass, percentage of the area in the test plots ([1]; 83 DA-A, isoxaben only, LR (labelled rate)): 0%
Large Crabgrass, percentage of the area in the test plots ([1]; 111 DA-A, isoxaben only, LR (labelled rate)): 6%
Large Crabgrass, percentage of the area in the test plots ([1]; 125 DA-A, isoxaben only, LR (labelled rate)): 15%
Large Crabgrass, percentage of the area in the test plots ([1]; 139 DA-A, isoxaben only, LR (labelled rate)): 30%
Large Crabgrass, percentage of the area in the test plots ([1]; 161 DA-A, isoxaben only, LR (labelled rate)): 28.3%
Large Crabgrass, percentage of the area in the test plots ([1]; 191 DA-A, isoxaben only, LR (labelled rate)): 73.3%
Large Crabgrass, percentage of the area in the test plots ([2]; 69 DA-A, isoxaben only (rate not given)): 0%
Large Crabgrass, percentage of the area in the test plots ([2]; 83 DA-A, isoxaben only (rate not given)): 0%
Large Crabgrass, percentage of the area in the test plots ([2]; 111 DA-A, isoxaben only (rate not given)): 7.7%
Large Crabgrass, percentage of the area in the test plots ([2]; 125 DA-A, isoxaben only (rate not given)): 16%
Large Crabgrass, percentage of the area in the test plots ([2]; 139 DA-A, isoxaben only (rate not given)): 21.7%
Large Crabgrass, percentage of the area in the test plots ([2]; 161 DA-A, isoxaben only (rate not given)): 58.3%
Large Crabgrass, percentage of the area in the test plots ([2]; 191 DA-A, isoxaben only (rate not given)): 63.3%
Percent Amount of Broadleaf weeds present in Test plots ([3]; 6 DA-A): 3.3%
Percent Amount of Broadleaf weeds present in Test plots ([3]; 29 DA-A): 2.7%
Percent Amount of Broadleaf weeds present in Test plots ([3]; 55 DA-A): 2%
Percent Amount of Broadleaf weeds present in Test plots ([3]; 83 DA-A): 8.3%
Percent Amount of Broadleaf weeds present in Test plots ([3]; 111 DA-A): 2.7%
Percent Amount of Broadleaf weeds present in Test plots ([3]; 125 DA-A): 0.7%
Percent Amount of Broadleaf weeds present in Test plots ([3]; 139 DA-A): 4%
Percent Amount of Broadleaf weeds present in Test plots ([3]; 161 DA-A): 0%
Percent Amount of Broadleaf weeds present in Test plots ([4]; 6 DA-A): 4.3%
Percent Amount of Broadleaf weeds present in Test plots ([4]; 29 DA-A): 5%
Percent Amount of Broadleaf weeds present in Test plots ([4]; 55 DA-A): 14%
Percent Amount of Broadleaf weeds present in Test plots ([4]; 83 DA-A): 9.7%
Percent Amount of Broadleaf weeds present in Test plots ([4]; 111 DA-A): 17.3%
Percent Amount of Broadleaf weeds present in Test plots ([4]; 125 DA-A): 6.3%
Percent Amount of Broadleaf weeds present in Test plots ([4]; 139 DA-A): 7.7%
Percent Amount of Broadleaf weeds present in Test plots ([4]; 161 DA-A): 1.7%
Percent Amount of Broadleaf weeds present in Test plots ([5]; 6 DA-A): 6.3%
Percent Amount of Broadleaf weeds present in Test plots ([5]; 29 DA-A): 8.3%
Percent Amount of Broadleaf weeds present in Test plots ([5]; 55 DA-A): 11%
Percent Amount of Broadleaf weeds present in Test plots ([5]; 83 DA-A): 3.3%
Percent Amount of Broadleaf weeds present in Test plots ([5]; 111 DA-A): 3%
Percent Amount of Broadleaf weeds present in Test plots ([5]; 125 DA-A): 0%
Percent Amount of Broadleaf weeds present in Test plots ([5]; 139 DA-A): 0.7%
Percent Amount of Broadleaf weeds present in Test plots ([5]; 161 DA-A): 0.3%
